Experimental findings from ChEMBL document CHEMBL4177596, “Flavonoids and their derivatives with β-amyloid aggregation inhibitory activity from the leaves and twigs of Pithecellobium clypearia Benth” (Bioorg Med Chem Lett, 2017) are described below.

Test [1] concerns the target Amyloid-beta precursor protein (Homo sapiens) (UniProt P05067). The test can be described thus: Inhibition of HFIP-pretreated amyloid beta (1 to 42) (unknown origin) self-induced aggregation at 20 uM incubated for 24 hrs under dark condition by thioflavin-T based fluorometric assay relative to control.
The test system of test [2] is SH-SY5Y. The test can be described thus: Neuroprotective activity against H2O2-induced cell death in human SH-SY5Y cells assessed as increase in cell viability at 100 uM pretreated for 12 hrs followed by H2O2 challenge measured after 3 hrs by MTT assay. It is filed as functional, cell-based. A general note: Tetrazolium dyes change colour on reduction, which living cells bring about.

Test [3] concerns SH-SY5Y. The test can be described thus: Neuroprotective activity against H2O2-induced morphological changes in human SH-SY5Y cells assessed as reduction in cell shrinkage at 100 uM by phase contrast microscopic analysis. It is filed as functional, cell-based.
The subject of test [4] is SH-SY5Y. The test can be described thus: Neuroprotective activity against H2O2-induced morphological changes in human SH-SY5Y cells assessed as reduction in appearance of apoptotic bodies at 100 uM by phase contrast microscopic analysis. The format is functional, cell-based.

Activity calls are given as the source filed them. No cut-off for these calls is given here.

Chain of Amyloid-beta precursor protein (Homo sapiens) (P05067 whole entry): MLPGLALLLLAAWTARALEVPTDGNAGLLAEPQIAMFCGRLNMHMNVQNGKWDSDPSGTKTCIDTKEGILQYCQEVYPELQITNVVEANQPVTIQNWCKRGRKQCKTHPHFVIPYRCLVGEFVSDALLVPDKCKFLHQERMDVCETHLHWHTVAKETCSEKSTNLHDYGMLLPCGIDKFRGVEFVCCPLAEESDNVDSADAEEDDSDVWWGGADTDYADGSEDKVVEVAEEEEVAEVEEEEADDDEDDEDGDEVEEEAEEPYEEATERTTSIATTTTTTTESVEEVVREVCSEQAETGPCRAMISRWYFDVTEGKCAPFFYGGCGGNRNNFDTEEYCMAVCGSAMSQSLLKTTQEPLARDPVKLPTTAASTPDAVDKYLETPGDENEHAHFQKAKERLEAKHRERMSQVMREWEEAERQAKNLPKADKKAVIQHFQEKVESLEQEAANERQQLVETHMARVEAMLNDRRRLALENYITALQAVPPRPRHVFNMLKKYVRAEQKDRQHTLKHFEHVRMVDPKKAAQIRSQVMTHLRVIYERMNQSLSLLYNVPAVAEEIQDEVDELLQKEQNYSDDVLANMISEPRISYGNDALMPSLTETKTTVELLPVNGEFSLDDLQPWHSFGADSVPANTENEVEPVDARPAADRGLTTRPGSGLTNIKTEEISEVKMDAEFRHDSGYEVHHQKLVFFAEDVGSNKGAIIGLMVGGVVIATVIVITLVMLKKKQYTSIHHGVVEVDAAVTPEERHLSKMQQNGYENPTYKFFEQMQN

One may read the inhibition as the share of the control response that was lost under treatment. As to `COc1cc(OC)c2c(c1)O[C@H](c1cc(O)c(O)c(OC)c1)[C@@H](O)C2`, the inhibition result in test [1] was “Active”.
As for `COc1cc(O)cc2oc(-c3ccc(O)cc3)cc(=O)c12`, the inhibition result in test [1] was “Active”.
For the compound `O=C(O[C@@H]1Cc2c(O)cc(O)cc2O[C@@H]1c1cc(O)c(O)c(O)c1)c1cc(O)c(O)c(O)c1`, the inhibition in test [1] was found to be 86.1%.
With `O=C(Oc1cc(O)c2c(c1)O[C@H](c1cc(O)c(OC(=O)c3cc(O)c(O)c(O)c3)c(O)c1)[C@@H](O)C2)c1cc(O)c(O)c(O)c1`, the inhibition in test [1] is 56.3%. Also, the outcome with SH-SY5Y [2] was Active.
On to `C[C@H]1O[C@H](Oc2c(-c3ccc(O)c(O)c3)oc3cc(O)cc(O)c3c2=O)[C@@H](O)[C@@H](O)[C@@H]1O`, for which the inhibition in test [1] was found to be 70.7%.
For `O=C(Oc1cc(O)c2c(c1)O[C@H](c1cc(O)c(O)c(O)c1)[C@@H](O)C2)c1cc(O)c(O)c(O)c1`, the inhibition result in test [1] is “Active”. In addition, in the test with SH-SY5Y [2], the outcome was Active.
Regarding `O=c1c(O)c(-c2ccc(O)c(O)c2)oc2cc(O)cc(O)c12`, the inhibition in test [1] stood at 88.4%. The outcome in the test with SH-SY5Y [2] was Active.
Regarding `C[C@@H]1Oc2cccc(O)c2C(=O)[C@@H]1O`, the inhibition result in test [1] was “Active”.
Consider `Oc1cc([C@@H]2CCc3c(O)cccc3O2)cc(O)c1O`, for which the inhibition in test [1] is 59.6%.
On to `O=C(Oc1cc(O)c2c(c1)O[C@H](c1ccc(O)c(O)c1)[C@@H](O)C2)c1cc(O)c(O)c(O)c1`, for which the inhibition entry in test [1] is “Active”. Besides, the result in the test with SH-SY5Y [2] was Active.
`C[C@@H]1O[C@@H](Oc2c(-c3cc(O)c(O)c(O)c3)oc3cc(O)cc(O)c3c2=O)[C@H](O)[C@H](O)[C@H]1O`: in test [1], the inhibition is 62.2%.
As to `COc1cc(-c2cc(=O)c3c(OC)cc(O)cc3o2)ccc1O`, the inhibition result in test [1] was “Active”.
For the compound `O=C1c2ccc(O)c(O)c2O[C@H](c2ccc(O)c(O)c2)[C@H]1O`, the inhibition in test [1] is 87.7%. Also, the outcome in the test on SH-SY5Y [3], in the test with SH-SY5Y [4] and in the test with SH-SY5Y [2] was Active.
Regarding `COc1cc(O)c(C[C@H](O)Cc2ccc(O)c(OC)c2)c(OC)c1`, the inhibition entry in test [1] is “Active”.
For the compound `O=C(Oc1cc(O)c2c(c1)O[C@@H](c1cc(O)c(O)c(O)c1)CC2)c1cc(O)c(O)c(O)c1`, the inhibition entry in test [1] is “Active”. In the test on SH-SY5Y [2], the outcome was Active.
As to `O=c1cc(-c2ccc(O)c(O)c2)oc2cc(O)cc(O)c12`, the inhibition in test [1] is 86.5%. For the same compound, the result with SH-SY5Y [2] was Active.
